Results taken from patent US20080119498A1, “Therapeutic Agent for Pruritus Comprising P38 Map Kinase Inhibitor as the Active Ingredient” (priority 2004, published 2008).

Tests used:
[1] = tested on: platelet activating factor-induced eye scratching behavior; experiment: Ocular pruritus inhibition activity to platelet activating factor-induced models; assay type: in vivo, guinea pig; details: for Eye scratching behavior inhibition ratio / Number of eye scratching times: male Hartley guinea pigs, 10 μl per eye; for Eye scratching behavior inhibition ratio: 30 minutes after instillation of 0.1% platelet activating factor, versus control; for Number of eye scratching times: average for 30 minutes after instillation of 0.1% platelet activating factor, control 7.1
Procedure: (§1) Eye scratching behavior inhibition ratio (%)=100−(number of eye scratching times for test compound)/(number of eye scratching times for control)×100
Platelet activating factor-induced ocular pruritus evaluation models were prepared in accordance with the published method of Kato et al. (J. Ocul. Pharmacol. Ther. 2003; 19: 315-324). Compound C was dissolved in ultrapure water at a concentration of 0.01% or 0.1% (w/v), and each of the resulting solutions was instilled into both eyes of 5-week-old male Hartley guinea pigs in an amount of 10 μl per eye. At 15 minutes thereafter, each solution of Compound C of the same concentration was instilled again (twice in total). As a control, ultrapure water was used.
After 15 minutes from the second instillation of the solution of Compound C, a physiological saline solution in which a platelet activating factor was dissolved at 0.1% (w/v) was instilled into both eyes of the above guinea pigs in an amount of 10 μl per eye to induce eye scratching behavior.
The behavior of the guinea pigs after the instillation of the platelet activating factor was videotaped, and the ocular pruritus was evaluated for each eye by counting the number of times of a series of behaviors of scratching the eye with the hind paws. In Table 2, the average of the number of eye scratching times for 30 minutes after the instillation of the platelet activating factor and the average of the eye scratching behavior inhibition ratio are shown. Each group consisted of 8 eyes.

[2] = tested on: histamine-induced eye scratching behavior; experiment: Ocular pruritus inhibition activity to histamine-induced models; assay type: in vivo, guinea pig; details: for number of eye scratching times in comparison with the control (in words): histamine-induced guinea pig model, instilled at 0.1%; for Eye scratching behavior inhibition ratio / Number of eye scratching times: male Hartley guinea pigs, 0.1% (w/v) instilled twice, 10 μl per eye; for Eye scratching behavior inhibition ratio: 30 minutes after instillation of 1.0% histamine, versus control; for Number of eye scratching times: average for 30 minutes after instillation of 1.0% histamine, control 6.1
Procedure: Compound A was dissolved in a 5.0% Tween 80/physiological saline solution at a concentration of 0.1% (w/v), and Compound B was suspended in a 5.0% Tween 80/physiological saline solution at a concentration of 0.1% (w/v), whereby the respective test compound solutions were prepared.
Each test compound solution was instilled into both eyes of 5-week-old male Hartley guinea pigs in an amount of 10 μl per eye. At 15 minutes thereafter, each test compound solution of the same concentration was instilled again (twice in total). As a control, a 5.0% Tween 80/physiological saline solution was used.
After 15 minutes from the second instillation of each test compound solution, a physiological saline solution in which histamine was dissolved at 1.0% (w/v) was instilled into both eyes of the above guinea pigs in an amount of 10 μl per eye to induce eye scratching behavior.
The behavior of the guinea pigs after the instillation of histamine was videotaped, and the ocular pruritus was evaluated for each eye by counting the number of times of a series of behaviors of scratching the eye with the hind paws. In Table 1, the average of the number of eye scratching times for 30 minutes after the instillation of histamine and the average of the eye scratching behavior inhibition ratio are shown. Each group consisted of 8 eyes.
as §1

SMILES | Eye scratching behavior inhibition ratio ([1]; 0.01% (w/v) instilled twice) [%] | Number of eye scratching times ([1]; 0.01% (w/v) instilled twice) [times] | Eye scratching behavior inhibition ratio ([1]; 0.1% (w/v) instilled twice) [%] | Number of eye scratching times ([1]; 0.1% (w/v) instilled twice) [times] | number of eye scratching times in comparison with the control (in words) ([1]; platelet activating factor-induced guinea pig model, instilled at 0.01% or 0.1%) | number of eye scratching times in comparison with the control (in words) [2] | Eye scratching behavior inhibition ratio [2] [%] | Number of eye scratching times [2] [times]
C[S+]([O-])c1ccc(-c2nc(-c3ccc(F)cc3)c(-c3ccncc3)[nH]2)cc1.Cl (centres unmarked) [Compound C, 4-(4-fluorophenyl)-2-(4-methylsulfinylphenyl)-5-(4-pyridyl)-1H-imidazole hydrochloride] | 87.3 | 0.9 | 85.9 | 1.0 | significantly decreased | – | – | –
COc1nccc(-c2c(-c3ccc(F)cc3)ncn2[C@H]2CC[C@H](O)CC2)n1 [Compound B, trans-4-[4-(4-fluorophenyl)-5-(2-methoxy-4-pyrimidinyl)-1H-imidazole-1-yl]cyclohexanol] | – | – | – | – | – | significantly decreased | 36.1 | 3.9
Cl.Oc1ccc(-c2nc(-c3ccc(F)cc3)c(-c3ccncc3)[nH]2)cc1 [Compound A, 4-(4-fluorophenyl)-2-(4-hydroxyphenyl)-5-(4-pyridyl)-1H-imidazole hydrochloride] | – | – | – | – | – | significantly decreased | 77.0 | 1.4
